Test results published in ChEMBL document CHEMBL1123813, “Chemistry and inhibitory activity of long chain fatty acid oxidation of emeriamine and its analogues” (J Med Chem, 1987).

Organism: Rattus norvegicus
Experiment: Inhibition of carnitine-dependent oxidation of [1-14C]palmitate to 14CO2 in rat liver mitochondria was measured in vitro at 2 mM concentration

In order of falling inhibition:
1. Cc1ccc(S(=O)(=O)NC(CC(=O)[O-])C[N+](C)(C)C)cc1 (stereo not drawn)  100%
2. CNC(CC(=O)[O-])C[N+](C)(C)C (stereo not drawn)  100%
3. C[N+](C)(C)CC(CC(=O)[O-])NC(=O)OCc1ccccc1 (stereo not drawn)  98%
4. C[N+](C)(C)C[C@@H](CC(=O)[O-])NC=O  84%
5. C[N+](C)(C)CC(CC(=O)[O-])NC(N)=O (stereo not drawn)  72%
6. CCCC(=O)NC(CC(=O)[O-])C[N+](C)(C)C (stereo not drawn)  50%
7. CCC(=O)NC(CC(=O)[O-])C[N+](C)(C)C (stereo not drawn)  44%
8. CC(=O)NC(CC(=O)[O-])C[N+](C)(C)C (stereo not drawn)  38%
9. COC(=O)NC(CC(=O)[O-])C[N+](C)(C)C (stereo not drawn)  0%

Organism: Rattus norvegicus
Experiment: Inhibition of carnitine-dependent oxidation of [1-14C]palmitate to 14CO2 in rat liver mitochondria was measured in vitro at 2*10e-2 mM concentration
Type: functional

In order of rising inhibition:
1. C[N+](C)(C)CC(N)CC(N)=O (stereo not drawn)  27%
2. COC(=O)CC(N)C[N+](C)(C)C (stereo not drawn)  73%
3. CCOC(=O)CC(N)C[N+](C)(C)C (stereo not drawn)  85%
4. C[N+](C)(C)C[C@H](N)CC(=O)[O-]  90%
5. CCCCCCCCCCCCCCCC(=O)NC(CC(=O)[O-])C[N+](C)(C)C (stereo not drawn)  100%
6. CCCCCCCCCCCCCC(=O)NC(CC(=O)[O-])C[N+](C)(C)C (stereo not drawn)  100%

Organism: Rattus norvegicus
Experiment: Inhibition of carnitine-dependent oxidation of [1-14C]palmitate to 14CO2 in rat liver mitochondria was measured in vitro at 2*10e-1 mM concentration
Type: functional

In order of rising inhibition:
1. COC(=O)NC(CC(=O)[O-])C[N+](C)(C)C (stereo not drawn)  0%
2. CC(=O)NC(CC(=O)[O-])C[N+](C)(C)C (stereo not drawn)  6%
3. C[N+](C)(C)C[C@@H](CC(=O)[O-])NC=O  53%
4. C[N+](C)(C)CC(CC(=O)[O-])NC(N)=O (stereo not drawn)  84%
5. Cc1ccc(S(=O)(=O)NC(CC(=O)[O-])C[N+](C)(C)C)cc1 (stereo not drawn)  84%
6. C[N+](C)(C)CC(CC(=O)[O-])NC(=O)OCc1ccccc1 (stereo not drawn)  85%
7. CNC(CC(=O)[O-])C[N+](C)(C)C (stereo not drawn)  89%

Organism: Rattus norvegicus
Experiment: Inhibition of carnitine-dependent oxidation of [1-14C]palmitate to 14CO2 in rat liver mitochondria was measured in vitro at 2*10e-3 mM concentration
Type: functional

In order of falling inhibition:
1. CCCCCCCCCCCCCCCC(=O)NC(CC(=O)[O-])C[N+](C)(C)C (stereo not drawn)  100%
2. CCCCCCCCCCCCCC(=O)NC(CC(=O)[O-])C[N+](C)(C)C (stereo not drawn)  100%
3. C[N+](C)(C)C[C@H](N)CC(=O)[O-]  59%
4. CCOC(=O)CC(N)C[N+](C)(C)C (stereo not drawn)  37%
5. COC(=O)CC(N)C[N+](C)(C)C (stereo not drawn)  26%
6. C[N+](C)(C)CC(N)CC(N)=O (stereo not drawn)  10%
